{
  "source": "the supplement of paper PMC10307832",
  "data": [
    {"compound": "Cc1ccc(NC(=O)c2ccc(CN3CCN(C)CC3)cc2)cc1Nc1nc(-c2cccnc2)cs1 [Masitinib] + CS(=O)(=O)CCNCc1ccc(-c2ccc3ncnc(Nc4ccc(OCc5cccc(F)c5)c(Cl)c4)c3c2)o1 [Lapatinib] (partner 2 µM)", "test": "relative viability (nuclei count vs DMSO), 5 days (fraction); higher = more cells survive", "conditions": "first compound 0.1 µM", "how_it_was_run": "(§1)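 A single step with final 0.05% Triton X-100, 1% formaldehyde and 1 ug/ml Hoechst fixed the cells and stained nuclei 5 days after treatment. Lung cancer cell lines in 1536-well plates had been treated by pin tool the day after seeding with one drug alone or a fixed anchor-drug dose plus five library-drug doses (not always all listed) in √10 steps, and nuclei were counted on 4× images. Relative viability is the ratio of nuclei in treated wells to nuclei in vehicle wells, taken as the median of duplicate plates.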", "values": [
      {"cell line": "HARA", "relative viability": 0.855},
      {"cell line": "HCC-78", "relative viability": 0.743},
      {"cell line": "LCLC-97TM1", "relative viability": 0.673},
      {"cell line": "NCI-H2023", "relative viability": 0.73},
      {"cell line": "NCI-H460", "relative viability": 0.921},
      {"cell line": "NCI-H727", "relative viability": 0.857},
      {"cell line": "NCI-H1755", "relative viability": 0.711},
      {"cell line": "NCI-H520", "relative viability": 0.944},
      {"cell line": "NCI-H2405", "relative viability": 0.953},
      {"cell line": "SW 1573", "relative viability": 1.2},
      {"cell line": "NCI-H1395", "relative viability": 1.39}
    ]},
    {"compound": "Cc1ccc(NC(=O)c2ccc(CN3CCN(C)CC3)cc2)cc1Nc1nc(-c2cccnc2)cs1 [Masitinib] + CS(=O)(=O)CCNCc1ccc(-c2ccc3ncnc(Nc4ccc(OCc5cccc(F)c5)c(Cl)c4)c3c2)o1 [Lapatinib] (partner 2 µM)", "test": "relative viability (nuclei count vs DMSO), 5 days (fraction); higher = more cells survive", "conditions": "first compound 0.3162 µM", "how_it_was_run": "as §1", "values": [
      {"cell line": "NCI-H2087", "relative viability": 1.22},
      {"cell line": "Calu-6", "relative viability": 0.938},
      {"cell line": "HCC-366", "relative viability": 0.945},
      {"cell line": "NCI-H1703", "relative viability": 0.479},
      {"cell line": "NCI-H647", "relative viability": 1.04},
      {"cell line": "LK-2", "relative viability": 1.06},
      {"cell line": "NCI-H2126", "relative viability": 0.662},
      {"cell line": "NCI-H1793", "relative viability": 0.456},
      {"cell line": "H3255", "relative viability": 0.213},
      {"cell line": "COR-L23", "relative viability": 1.2},
      {"cell line": "COR-L 105", "relative viability": 0.36},
      {"cell line": "IA-LM", "relative viability": 0.928},
      {"cell line": "LOU-NH91", "relative viability": 0.563},
      {"cell line": "NCI-H358", "relative viability": 0.494},
      {"cell line": "NCI-H3122", "relative viability": 1.04},
      {"cell line": "HOP-62", "relative viability": 1.31},
      {"cell line": "HCC-44", "relative viability": 0.856},
      {"cell line": "A549", "relative viability": 0.942},
      {"cell line": "LXF-289", "relative viability": 0.929},
      {"cell line": "BEN", "relative viability": 0.54},
      {"cell line": "HARA", "relative viability": 0.675},
      {"cell line": "HCC-78", "relative viability": 0.334},
      {"cell line": "LCLC-97TM1", "relative viability": 1.57},
      {"cell line": "NCI-H2023", "relative viability": 0.559},
      {"cell line": "A-427", "relative viability": 1.17},
      {"cell line": "NCI-H460", "relative viability": 1.05},
      {"cell line": "NCI-H727", "relative viability": 0.914},
      {"cell line": "NCI-H1755", "relative viability": 1.07},
      {"cell line": "NCI-H520", "relative viability": 0.82},
      {"cell line": "NCI-H2405", "relative viability": 0.946},
      {"cell line": "SW 1573", "relative viability": 0.73},
      {"cell line": "NCI-H1395", "relative viability": 0.982}
    ]},
    {"compound": "Cc1ccc(NC(=O)c2ccc(CN3CCN(C)CC3)cc2)cc1Nc1nc(-c2cccnc2)cs1 [Masitinib] + CS(=O)(=O)CCNCc1ccc(-c2ccc3ncnc(Nc4ccc(OCc5cccc(F)c5)c(Cl)c4)c3c2)o1 [Lapatinib] (partner 2 µM)", "test": "relative viability (nuclei count vs DMSO), 5 days (fraction); higher = more cells survive", "conditions": "first compound 1 µM", "how_it_was_run": "as §1", "values": [
      {"cell line": "NCI-H2087", "relative viability": 0.861},
      {"cell line": "Calu-6", "relative viability": 1.05},
      {"cell line": "HCC-366", "relative viability": 1.13},
      {"cell line": "NCI-H1703", "relative viability": 0.256},
      {"cell line": "NCI-H647", "relative viability": 0.994},
      {"cell line": "LK-2", "relative viability": 0.941},
      {"cell line": "NCI-H2126", "relative viability": 0.769},
      {"cell line": "NCI-H1793", "relative viability": 0.575},
      {"cell line": "H3255", "relative viability": 0.248},
      {"cell line": "COR-L23", "relative viability": 1.17},
      {"cell line": "COR-L 105", "relative viability": 0.312},
      {"cell line": "IA-LM", "relative viability": 1.07},
      {"cell line": "LOU-NH91", "relative viability": 0.708},
      {"cell line": "NCI-H358", "relative viability": 0.421},
      {"cell line": "NCI-H3122", "relative viability": 1},
      {"cell line": "HOP-62", "relative viability": 0.937},
      {"cell line": "HCC-44", "relative viability": 0.951},
      {"cell line": "A549", "relative viability": 0.963},
      {"cell line": "LXF-289", "relative viability": 0.894},
      {"cell line": "BEN", "relative viability": 0.65},
      {"cell line": "HARA", "relative viability": 0.719},
      {"cell line": "HCC-78", "relative viability": 0.625},
      {"cell line": "LCLC-97TM1", "relative viability": 0.715},
      {"cell line": "NCI-H2023", "relative viability": 0.776},
      {"cell line": "A-427", "relative viability": 1.03},
      {"cell line": "NCI-H460", "relative viability": 1.26},
      {"cell line": "NCI-H727", "relative viability": 0.68},
      {"cell line": "NCI-H1755", "relative viability": 0.995},
      {"cell line": "NCI-H520", "relative viability": 0.917},
      {"cell line": "NCI-H2405", "relative viability": 0.952},
      {"cell line": "SW 1573", "relative viability": 0.987},
      {"cell line": "NCI-H1395", "relative viability": 0.81}
    ]},
    {"compound": "CC1=CC(=CC=C1)NC2=NC(=CS2)C3=CC=NC=C3 + CS(=O)(=O)N1CCN(Cc2cc3nc(-c4cccc5[nH]ncc45)nc(N4CCOCC4)c3s2)CC1 [Pictilisib] (partner 1 µM)", "test": "relative viability (nuclei count vs DMSO), 5 days (fraction); higher = more cells survive", "conditions": "first compound 0.08 µM", "how_it_was_run": "as §1", "values": [
      {"cell line": "NCI-H2087", "relative viability": 0.616},
      {"cell line": "Calu-6", "relative viability": 0.796},
      {"cell line": "HCC-366", "relative viability": 0.146}
    ]}
  ]
}
